Assay results as given in ChEMBL document CHEMBL3232962, “Identification and optimization of novel Hsp90 inhibitors with tetrahydropyrido[4,3-d]pyrimidines core through shape-based screening” (Eur J Med Chem, 2014).

Experiments:
[1] = target: T1, Heat shock protein HSP 90-beta (Homo sapiens, UniProt P08238); test: Inhibition of full-length HSP90 (unknown origin) expressed in Escherichia coli assessed as inhibition of ATPase activity after 3 hrs by spectrophotometric analysis
[2] = target: T1, Heat shock protein HSP 90-beta; test: Displacement of FITC-geldanamycin from HSP90 (unknown origin) after 30 mins by fluorescence polarization assay
[3] = cells; settings: Homo sapiens, SK-BR-3, 48 h
Description: Antiproliferative activity against human SKBR3 cells after 48 hrs by MTT assay

[4] = system: MCF7; test: cells; settings: Homo sapiens, MCF7, 48 h
[5] = Antiproliferative activity against human A231 cells after 48 hrs by MTT assay; assay type: functional, cell-based; settings: A231, 48 h
[6] = system: HCT-116; test: cells; settings: Homo sapiens, HCT-116, 48 h

T1 sequence (P08238 whole entry): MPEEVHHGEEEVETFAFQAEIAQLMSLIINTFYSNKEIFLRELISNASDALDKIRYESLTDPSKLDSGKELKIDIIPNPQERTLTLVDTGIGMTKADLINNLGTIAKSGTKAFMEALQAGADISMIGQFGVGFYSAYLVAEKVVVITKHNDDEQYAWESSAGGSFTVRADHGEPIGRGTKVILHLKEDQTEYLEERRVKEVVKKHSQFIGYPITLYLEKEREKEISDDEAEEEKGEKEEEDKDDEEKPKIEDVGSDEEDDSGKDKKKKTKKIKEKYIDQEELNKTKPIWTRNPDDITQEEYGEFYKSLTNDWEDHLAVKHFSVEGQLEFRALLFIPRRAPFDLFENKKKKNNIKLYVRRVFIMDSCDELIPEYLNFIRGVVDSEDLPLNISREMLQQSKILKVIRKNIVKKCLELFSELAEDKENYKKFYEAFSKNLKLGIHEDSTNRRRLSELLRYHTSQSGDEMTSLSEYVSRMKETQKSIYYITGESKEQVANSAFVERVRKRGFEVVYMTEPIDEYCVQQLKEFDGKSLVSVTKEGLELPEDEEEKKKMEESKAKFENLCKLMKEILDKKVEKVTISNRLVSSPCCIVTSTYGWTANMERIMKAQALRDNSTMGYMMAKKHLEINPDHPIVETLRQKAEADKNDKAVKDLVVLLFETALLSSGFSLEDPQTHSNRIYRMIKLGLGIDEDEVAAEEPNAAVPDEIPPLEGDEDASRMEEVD

IC50 [1]	Compound	IC50 [2]	IC50 [3]	IC50 [4]	IC50 [5]	IC50 [6]
63.2 µM	CN1CCN(c2ncc3c(n2)CCN(Cc2ccc(Br)s2)C3)CC1	–	–	–	–	–
74.7 µM	CCN1CCN(c2ncc3c(n2)CCN(Cc2ccc(Br)s2)C3)CC1	–	–	–	–	–
50.9 µM	COc1cc(OC)c(OC)cc1CN1CCc2nc(N3CCOCC3)ncc2C1	–	–	–	–	–
> 100 µM	c1cc2c(cc1CN1CCc3nc(Nc4ccc5c(c4)OCCO5)ncc3C1)OCCO2	–	–	–	–	–
40.2 µM	Fc1ccc(CN2CCc3nc(N4CCN(c5ncccn5)CC4)ncc3C2)cc1	> 100 µM	–	–	–	–
47.9 µM	Clc1ccc(CN2CCc3nc(N4CCN(c5ncccn5)CC4)ncc3C2)cc1	> 100 µM	–	–	–	–
55.1 µM	COc1cc(CN2CCc3nc(N4CCOCC4)ncc3C2)cc(OC)c1OC	–	–	–	–	–
46.1 µM	CN(C)c1ccc(CN2CCc3nc(N4CCN(c5ncccn5)CC4)ncc3C2)cc1	> 100 µM	–	–	–	–
59.3 µM	CCCN1CCN(c2ncc3c(n2)CCN(Cc2cc(Br)cs2)C3)CC1	–	–	–	–	–
88 µM	CC1CCN(c2ncc3c(n2)CCN(Cc2ccc(Br)s2)C3)CC1	–	–	–	–	–
–	CO[C@H]1/C=C\C=C(/C)C(=O)NC2=CC(=O)C(NCCN(C)C)=C(C[C@@H](C)C[C@H](OC)[C@H](O)[C@@H](C)/C=C(\C)[C@@H]1OC(N)=O)C2=O [ALVESPIMYCIN]	–	3.11 µM	0.8 µM	0.17 µM	1.21 µM
0.35 µM	CC(C)c1cc(C(=O)N2Cc3ccc(CN4CCN(C)CC4)cc3C2)c(O)cc1O [ONALESPIB]	0.03 µM	0.14 µM	0.28 µM	1.01 µM	0.08 µM

Compound	IC50 [1]	IC50 [2]	IC50 [3]	IC50 [4]	IC50 [5]	IC50 [6]
COc1ccc(OC)c(CN2CCc3nc(N4CCN(c5ncccn5)CC4)ncc3C2)c1	35.2 µM	45.4 µM	10.7 µM	53.2 µM	27.5 µM	43.2 µM
COc1ccc(OC)c(C(=O)N2CCc3nc(N4CCN(c5ncccn5)CC4)ncc3C2)c1	16.4 µM	40.4 µM	23.5 µM	43.3 µM	51.3 µM	34.6 µM
O=C(c1ccc(F)cc1)N1CCc2nc(N3CCN(c4ncccn4)CC3)ncc2C1	27.2 µM	> 100 µM	24.5 µM	46.2 µM	54.4 µM	67.9 µM
O=C(c1ccc(Cl)cc1)N1CCc2nc(N3CCN(c4ncccn4)CC3)ncc2C1	24.5 µM	> 100 µM	11.2 µM	42.2 µM	24.6 µM	21.7 µM
COc1ccc(C(=O)N2CCc3nc(N4CCN(c5ncccn5)CC4)ncc3C2)c(OC)c1	7.88 µM	30.5 µM	16 µM	20.2 µM	37.6 µM	11.5 µM
O=C(c1ccc(O)cc1O)N1CCc2nc(N3CCN(c4ncccn4)CC3)ncc2C1	3.23 µM	10.2 µM	12.2 µM	17.5 µM	21.3 µM	23.1 µM
O=C(c1cc(Cl)c(O)cc1O)N1CCc2nc(N3CCN(c4ncccn4)CC3)ncc2C1	0.93 µM	1.67 µM	5.17 µM	10.2 µM	6.65 µM	2.74 µM
Nc1ncc2c(n1)CCN(C(=O)c1cc(Cl)c(O)cc1O)C2	0.51 µM	0.31 µM	2.3 µM	4.41 µM	5.22 µM	1.21 µM
Cc1ncc2c(n1)CCN(C(=O)c1cc(Cl)c(O)cc1O)C2	0.42 µM	0.1 µM	4.32 µM	1.91 µM	3.76 µM	2.82 µM
